Measurements: the METLIN SMRT retention time set (Domingo-Almenara et al. 2019)

Assay: gradient 5% acetonitrile 3 min, to 50% in 2 min, to 85% in 15 min, held 3 min, 100 µL/min
Details: column: Zorbax Extend-C18 2.1 x 50 mm; eluents: water / acetonitrile, 0.1% formic acid
How it was run: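 Pure standards were analyzed in mixtures of ~100 molecules using HPLC coupled to a quadrupole time-of-flight mass spectrometer, in both positive and negative ionization mode. Separation used a Zorbax Extend-C18 column (2.1 × 50 mm, 1.8 μm) at 100 μL/min, with water and acetonitrile each containing 0.1% formic acid. Dead and dwell volumes were 40 μL and 900 μL, and data were collected over 3 months. Retention time was read from computationally picked adduct peaks, each inspected manually.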

SMILES | RP-LC retention time [s]
Cc1[nH]c(C(=O)N2CCC(CC(=O)NCc3ccc(Cl)cc3)CC2)c(C)c1C(=O)OC(C)C | 878
Cc1ccn2cc(-c3cccc(S(=O)(=O)N4CCCC4)c3)nc2c1 | 611
CC(C)Cc1nc2nccc(-c3ccccc3)n2n1 | 877
Cc1cc2n(n1)CCC(=O)N2CCCC(=O)N(C)Cc1ccccc1 | 681
CCc1nc2sc(C(C)C)nn2c1S(=O)(=O)NC1CCCCC1 | 1020
O=C(Nc1ccc2c(c1)OCO2)C1CCCN(c2nnc3ccc(Cl)cn23)C1 (centres undefined) | 747
CCc1ccc(NC(=O)Cn2cnc3c(sc4nc(-c5ccccc5)ccc43)c2=O)cc1 | 1100
CCOC(=O)c1ccccc1NC(=O)Cn1cnc2c(sc3nc(-c4ccccc4)ccc32)c1=O | 1200
O=c1ccn(-c2ccccc2)nc1-c1nc(-c2ccncc2)no1 | 649
CCOc1ccc(NC(=O)N2CCC(c3nc(C(=O)N4CCCC4)c(C)o3)CC2)cc1 | 764
CCn1cc(S(=O)(=O)N2CCC(c3noc(COCCOC)n3)CC2)cn1 | 704
O=C(Cn1c(=O)c(=O)n(Cc2ccncc2)c2ncccc21)NCCc1ccc(Cl)cc1 | 633
CCN1C(=O)C2CCC(=O)N2c2ccc(C(=O)NCc3ccco3)cc21 (centres undefined) | 674
Cc1csc(-c2cc(S(=O)(=O)N3CCCc4ccccc43)c(C)s2)n1 | 1210
CCc1ccccc1NC(=O)N1CCCC(C)(C(=O)NCc2ccccc2C)C1 (centres undefined) | 1020
O=c1ccc(-c2ccccc2F)nn1Cc1nc(-c2ccc3c(c2)OCO3)no1 | 944
Cc1c(Cl)cccc1Nc1c(-c2cccc(Cl)c2)nc2cnccn12 | 1140
CSc1ccc(C2c3[nH]c4ccccc4c3CCN2C(=O)Cc2cccs2)cc1 (centres undefined) | 1200
CN1CCN(c2ncncc2N2CCC(C(=O)NCc3ccc(F)cc3Cl)CC2)CC1 | 572
O=C(c1ccccc1Cl)N1CCC(n2cnnc2C2CC2)CC1 | 620
COc1cccc(OC)c1C(=O)NCCNC(=O)c1ccc(NC(=O)C2CC2)cc1 | 608
Fc1ccc(-c2ccc(-c3nn4c(-c5ccco5)nnc4s3)o2)cc1 | 896

SMILES | RP-LC retention time [s]
CCCn1c(=O)c2c(nc3n2CCCCN3c2ccc(OCC)cc2)n(C)c1=O | 973
O=C(C1CCCO1)N1CCC(OCc2nc(-c3cccnc3)no2)CC1 (centres undefined) | 636
COc1ccc(OC)c(S(=O)(=O)NCc2ccc3c(c2)CCN3C(C)=O)c1 | 719
CS(=O)(=O)N1CCC(C(=O)Nc2ccc(F)cc2)Oc2ccc(Cl)cc21 (centres undefined) | 903
Cc1nc(-c2ccc(N3CCN(S(=O)(=O)c4cccnc4)CC3)nc2)no1 | 680
COCc1nc(NCc2cccnc2)ncc1C(=O)O | 809
COc1ccc(C2(C(=O)N3CCOc4ccc(N5CCOCC5)cc4C3)CC2)cc1 | 794
CCOc1ccc(S(=O)(=O)Nc2ccc(-c3cn4ccc(C)nc4n3)cc2)cc1 | 661
COc1ccc(OC)c(NC(=O)Cn2cccc2-c2nnc(-c3ccccc3)o2)c1 | 1020
CCc1noc(-c2ccc(-n3cnc(C(=O)N(C)C4CCCCC4)c3)nc2)n1 | 944
Cc1cccc(-n2cc(C(=O)OCC(=O)OC(C)(C)C)c3ccccc3c2=O)c1 | 1210
O=C(NCc1ccco1)c1ccc2c(c1)CCCN2C(=O)c1cccc(Cl)c1 | 889
COc1cccc(S(=O)(=O)Nc2ccc(C(=O)Nc3ccncc3)cc2)c1 | 578
CC(CNC(=O)c1cc2sccc2n1C)c1ccccc1 (centres undefined) | 983
CCOc1ccc(NC(=O)C2(C)Oc3cccnc3N(CC)C2=O)cc1 (centres undefined) | 913
Cc1nnc(-c2cn(CC(=O)NCc3cccc(Br)c3)c3ccccc23)o1 | 838
COCCNC(=O)C1COC2(CCCCC2)N1C(=O)c1cccc(C(F)(F)F)c1 (centres undefined) | 814
CCN1CCN(C(=O)C2CCCN(c3ncnc4c3nc3n4CCCCC3)C2)CC1 (centres undefined) | 575
O=S(=O)(Cc1cccc(F)c1)NCC1CCN(Cc2ccsc2)CC1 | 578
Cc1ccc(C2NC(=O)N(CC(=O)Nc3cc(C)on3)C3=C2C(=O)OC3)cc1 (centres undefined) | 722
Cc1nn(CC(=O)NCCN2CCCCC2C)c(=O)c2nc(-c3ccccc3)sc12 (centres undefined) | 645
Cn1ncc(Br)c1C(=O)N1CCCC1c1ccccc1F (centres undefined) | 872
